Experimental data as given in patent publication US12697325B2 (TENNOR THERAPEUTICS (SUZHOU) LIMITED, priority 2021, dated 2026).

Tests used:
[1] = test system: clinical strains of Acinetobacter baumannii; test: Minimum inhibitory concentration (CLSI M07), Example 1, clinical strains; type: cell-based; conditions: combination MIC = sum of the concentrations of the two compounds
Description: The minimum inhibitory concentration (MIC) was determined in accordance with the requirements of the Clinical and Laboratory Standards Institute (CLSI) M07 (for aerobic bacteria).
3.1 The compounds were diluted with water up to 100 times of the highest concentration tested.
The dilution steps are as follows: first dilute the compounds or antibiotics to 100 times of the highest final concentration tested, and then:
A 50 μL of sterile water and 50 μL of avibactam sodium mother liquid were added into the A row of the second 96-well plate, and 50 μL of water was added into each of the remaining wells. A 50 μL of liquid was pipetted from the A row and added into the B row; after being pipetted up and down to even, 50 μL of the solution was pipetted and added to the C row, and diluted in a 2-fold gradient in turn for a total of 6 times and then, 50 μL was removed from each well of the G row to obtain the compound solution diluted to a 2-fold gradient and then 4 μL was transferred to a 96-well test plate.
Aerobic bacteria: the strains were inoculated on MHA one day in advance and incubated overnight at 37° C. On the day of the assay, 5-6 single colonies were picked and suspended evenly in saline, and the bacterial concentration was adjusted to the turbidity of 0.5 McFarland standard (concentration is about 1×10^8 CFU/mL). The bacterial suspension was diluted 200 times with the corresponding liquid culture medium (Table 1), i.e., at a bacterial concentration of ~5×10^5 CFU/ml, then 192 μL was transferred to a 96-well round bottom plate to obtain the test plate. Then, the 96-well round bottom plate obtained above was placed into an incubator at 37° C. and 85% humidity to incubate for 20 h.

[2] = 0.5 g, q8 h via infusion for 2 h; cited from earlier work

MIC50 ([1]; Acinetobacter baumannii, read-out: MIC50) [µg/mL]	MIC90 ([1]; Acinetobacter baumannii, read-out: MIC90) [µg/mL]	MIC range [1] [µg/mL]	SMILES	Part of the dosing interval with plasma concentration above 4 μg/mL [2] [%]	Part of the dosing interval with plasma concentration above 8 μg/mL [2] [%]
32	32	8 to 32	CC1(C)[C@H](C(=O)[O][Na+])N2C(=O)C[C@H]2S1(=O)=O [Sulbactam sodium, sulbactam sodium]	–	–
–	–	–	NC(=O)[C@@H]1CC[C@@H]2CN1C(=O)N2OS(=O)(=O)O [Avibactam, [(2S,5R)-2-carbamoyl-7-oxo-1,6-diazabicyclo [3.2.1]oct-6-yl] bisulfate]	50	30
